How the values were obtained:
Assay in all cases: relative viability (nuclei count vs DMSO), 5 days (fraction); higher = more cells survive
JZL-184 + Palbociclib = compound: C1CN(CCC1C(C2=CC3=C(C=C2)OCO3)(C4=CC5=C(C=C4)OCO5)O)C(=O)OC6=CC=C(C=C6)[N+](=O)[O-] [JZL-184] + CC(=O)c1c(C)c2cnc(Nc3ccc(N4CCNCC4)cn3)nc2n(C2CCCC2)c1=O [Palbociclib] (partner 0.5 µM)
How it was run: (§1)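 After 5 days of treatment, lung cancer cells in 1536-well plates were fixed and stained in a single step (final 0.05% Triton X-100, 1% formaldehyde, 1 ug/ml Hoechst) and their nuclei counted on 4× images. Treatment had been applied by pin tool the day after seeding as one drug alone or as a fixed anchor-drug dose with five library-drug doses (not always all listed) in √10 steps. Relative viability is the nuclei count of treated wells divided by that of vehicle wells, and values are medians of duplicate plates.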

JZL-184 + Lapatinib = compound: C1CN(CCC1C(C2=CC3=C(C=C2)OCO3)(C4=CC5=C(C=C4)OCO5)O)C(=O)OC6=CC=C(C=C6)[N+](=O)[O-] [JZL-184] + CS(=O)(=O)CCNCc1ccc(-c2ccc3ncnc(Nc4ccc(OCc5cccc(F)c5)c(Cl)c4)c3c2)o1 [Lapatinib] (partner 2 µM)
How it was run: as §1

JZL-184 + Phenformin = compound: C1CN(CCC1C(C2=CC3=C(C=C2)OCO3)(C4=CC5=C(C=C4)OCO5)O)C(=O)OC6=CC=C(C=C6)[N+](=O)[O-] [JZL-184] + N=C(N)NC(=N)NCCc1ccccc1 [Phenformin] (partner 250 µM)
How it was run: as §1

JZL-184 + Pemetrexed = compound: C1CN(CCC1C(C2=CC3=C(C=C2)OCO3)(C4=CC5=C(C=C4)OCO5)O)C(=O)OC6=CC=C(C=C6)[N+](=O)[O-] [JZL-184] + Nc1nc2[nH]cc(CCc3ccc(C(=O)N[C@@H](CCC(=O)O)C(=O)O)cc3)c2c(=O)[nH]1 [Pemetrexed] (partner 0.2 µM)
How it was run: as §1

JZL-184 + Olaparib = compound: C1CN(CCC1C(C2=CC3=C(C=C2)OCO3)(C4=CC5=C(C=C4)OCO5)O)C(=O)OC6=CC=C(C=C6)[N+](=O)[O-] [JZL-184] + O=C(c1cc(Cc2n[nH]c(=O)c3ccccc23)ccc1F)N1CCN(C(=O)C2CC2)CC1 [Olaparib] (partner 8 µM)
How it was run: as §1

| Cell Line | relative viability (JZL-184 + Palbociclib; first compound 0.04 µM) | relative viability (JZL-184 + Palbociclib; first compound 0.4 µM) | relative viability (JZL-184 + Palbociclib; first compound 1.265 µM) | relative viability (JZL-184 + Palbociclib; first compound 4 µM) | relative viability (JZL-184 + Lapatinib; first compound 0.04 µM) | relative viability (JZL-184 + Lapatinib; first compound 0.4 µM) | relative viability (JZL-184 + Lapatinib; first compound 1.265 µM) | relative viability (JZL-184 + Lapatinib; first compound 4 µM) | relative viability (JZL-184 + Phenformin; first compound 0.04 µM) | relative viability (JZL-184 + Phenformin; first compound 0.4 µM) | relative viability (JZL-184 + Phenformin; first compound 1.265 µM) | relative viability (JZL-184 + Phenformin; first compound 4 µM) | relative viability (JZL-184 + Pemetrexed; first compound 0.04 µM) | relative viability (JZL-184 + Pemetrexed; first compound 0.4 µM) | relative viability (JZL-184 + Pemetrexed; first compound 1.265 µM) | relative viability (JZL-184 + Pemetrexed; first compound 4 µM) | relative viability (JZL-184 + Olaparib; first compound 0.04 µM) | relative viability (JZL-184 + Olaparib; first compound 0.4 µM) | relative viability (JZL-184 + Olaparib; first compound 1.265 µM) | relative viability (JZL-184 + Olaparib; first compound 4 µM) |
| --- | --- | --- | --- | --- | --- | --- | --- | --- | --- | --- | --- | --- | --- | --- | --- | --- | --- | --- | --- | --- |
| NCI-H2170 | 0.439 | 0.37 | 0.407 | 0.366 | 0.302 | 0.252 | 0.285 | 0.275 | 0.435 | 0.407 | 0.419 | 0.419 | 0.267 | 0.258 | 0.252 | 0.286 | 0.68 | 0.613 | 0.617 | 0.544 |
| NCI-H2228 | 0.947 | 0.511 | 0.842 | 0.768 | 1.37 | 0.796 | 1.03 | 1.15 | 0.405 | 0.239 | 0.317 | 0.412 | 0.397 | 0.336 | 0.38 | 0.337 | 1.13 | 0.613 | 0.915 | 0.977 |
| NCI-H2347 | – | 0.398 | 0.407 | 0.443 | 1.1 | 0.884 | 0.953 | 0.815 | 0.357 | 0.393 | 0.369 | 0.536 | 0.388 | 0.368 | 0.402 | 0.45 | – | 0.577 | 0.586 | 0.53 |
| NCI-H2405 | 0.594 | 0.409 | 0.541 | 0.489 | 1.17 | 1.04 | 1.21 | 0.96 | 0.336 | 0.398 | 0.419 | 0.392 | 1.09 | 0.999 | 1.14 | 1.05 | 0.974 | 0.901 | 0.836 | 0.855 |
| NCI-H3122 | 0.168 | 0.181 | 0.22 | 0.208 | 0.959 | 0.916 | 1.01 | 1.08 | 0.38 | 0.387 | 0.376 | 0.39 | 0.187 | 0.18 | 0.2 | 0.204 | 0.571 | 0.55 | 0.667 | 0.598 |
| PC-3 [JPC-3] | 0.573 | 0.558 | 0.485 | 0.536 | 0.521 | 0.439 | 0.441 | 0.435 | 0.45 | 0.464 | 0.495 | 0.487 | 0.994 | 1.13 | 1.27 | 1.05 | 1.14 | 1.04 | 1.21 | 1.15 |
